Experimental data taken from PubChem BioAssay (NCI).
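48-hour exposure; five concentrations; linearly interpolated endpoints. TGI marks complete inhibition of growth.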

What was measured:
Experiment in all cases: inhibition of tumour cell growth, NCI panel, 48 h
[1] = tested on: 786-0 renal
[2] = tested on: HT29 colon
[3] = tested on: IGROV1 ovarian
[4] = tested on: SK-OV-3 ovarian
[5] = tested on: T-47D breast
[6] = tested on: SF-268 CNS
[7] = tested on: MALME-3M melanoma
[8] = tested on: UACC-257 melanoma
[9] = tested on: SN12C renal
[10] = tested on: NCI-H522 lung
[11] = tested on: OVCAR-8 ovarian
[12] = tested on: NCI/ADR-RES ovarian
[13] = tested on: OVCAR-4 ovarian
[14] = tested on: NCI-H23 lung
[15] = tested on: K-562 leukemia
[16] = tested on: SNB-75 CNS
[17] = tested on: SK-MEL-2 melanoma
[18] = tested on: EKVX NSCLC
[19] = tested on: NCI-H460 lung
[20] = tested on: HCT-116 colon
[21] = tested on: MOLT-4 leukemia
[22] = tested on: TK-10 renal
[23] = tested on: UACC-62 melanoma
[24] = tested on: SF-295 CNS
[25] = tested on: HCT-15 colon
[26] = tested on: OVCAR-5 ovarian
[27] = tested on: A549 NSCLC
[28] = tested on: BT-549 breast
[29] = tested on: U251 CNS
[30] = tested on: HS 578T breast
[31] = tested on: DU-145 prostate
[32] = tested on: SF-539 CNS
[33] = tested on: SK-MEL-5 melanoma
[34] = tested on: HL-60(TB) leukemia
[35] = tested on: CAKI-1 renal
[36] = tested on: CCRF-CEM leukemia
[37] = tested on: SNB-19 CNS
[38] = tested on: NCI-H226 lung
[39] = tested on: SR leukemia
[40] = tested on: HOP-92 NSCLC
[41] = tested on: MCF7 breast
[42] = tested on: RXF 393 renal
[43] = tested on: MDA-MB-435
[44] = tested on: PC-3 prostate
[45] = tested on: SK-MEL-28 melanoma
[46] = tested on: MDA-N
[47] = tested on: KM12 colon
[48] = tested on: RPMI-8226 leukemia
[49] = tested on: UO-31 renal
[50] = tested on: SW-620 colon
[51] = tested on: COLO 205 colon
[52] = tested on: M14 melanoma
[53] = tested on: ACHN renal
[54] = tested on: MDA-MB-231 breast
[55] = tested on: OVCAR-3 ovarian
[56] = tested on: A498 renal
[57] = tested on: HOP-62 NSCLC
[58] = tested on: LOX IMVI melanoma

`O=[N+]([O-])c1cccc(-c2ncc3c(n2)-c2ccccc2C3)c1` was tested, and the TGI [1] was over 100 µM, the TGI [2] was over 100 µM and the TGI [3] was over 100 µM. It also gave a TGI [4] of over 100 µM, a TGI [5] of over 100 µM and a TGI [6] of over 100 µM. For the same compound, the TGI [7] was over 100 µM, the TGI [8] was over 100 µM and the TGI [9] was over 100 µM. It also gave a TGI [10] of over 100 µM, a TGI [11] of over 100 µM and a TGI [12] of over 100 µM. For the same compound, the TGI [13] was over 100 µM, the TGI [14] was over 100 µM and the TGI [15] was over 100 µM. The TGI [16] was over 100 µM, the TGI [17] was over 100 µM and the TGI [18] was over 100 µM. For the same compound, the TGI [19] was over 100 µM, the TGI [20] was over 100 µM and the TGI [21] was over 100 µM. It also gave a TGI [22] of over 100 µM, a TGI [23] of over 100 µM and a TGI [24] of over 100 µM. For the same compound, the TGI [25] was over 100 µM, the TGI [26] was over 100 µM and the TGI [27] was over 100 µM. For the same compound, the TGI [28] was over 100 µM, the TGI [29] was over 100 µM and the TGI [30] was over 100 µM. The TGI [31] was over 100 µM, the TGI [32] was over 100 µM and the TGI [33] was over 100 µM. For the same compound, the TGI [34] was over 100 µM, the TGI [35] was over 100 µM and the TGI [36] was over 100 µM. The TGI [37] was 72.4 µM, the TGI [38] was over 100 µM and the TGI [39] was over 100 µM. The TGI [40] was over 100 µM, the TGI [41] was over 100 µM and the TGI [42] was over 100 µM. The TGI [43] was over 100 µM, the TGI [44] was over 100 µM and the TGI [45] was over 100 µM. It also gave a TGI [46] of over 100 µM, a TGI [47] of over 100 µM and a TGI [48] of over 100 µM. The TGI [49] was over 100 µM, the TGI [50] was over 100 µM and the TGI [51] was over 100 µM. For the same compound, the TGI [52] was over 100 µM, the TGI [53] was over 100 µM and the TGI [54] was over 100 µM.

Compound `CC(C)CCCC(C)[C@H]1CC[C@H]2n3c(nc4ccccc43)CCC[C@]12C` (stereo partly drawn) has a TGI [1] of 37.3 µM, a TGI [55] of 39 µM and a TGI [2] of 26.4 µM. For the same compound, the TGI [3] was 34.6 µM, the TGI [4] was 30.9 µM and the TGI [56] was 28 µM. For the same compound, the TGI [5] was 35.8 µM, the TGI [6] was 43 µM and the TGI [7] was 46.1 µM. The TGI [8] was 38.1 µM, the TGI [9] was 31.1 µM and the TGI [11] was 37.2 µM. It also gave a TGI [12] of 33.8 µM, a TGI [13] of 31.5 µM and a TGI [14] of 34.4 µM. For the same compound, the TGI [15] was 36.5 µM, the TGI [16] was 29.3 µM and the TGI [57] was 40.6 µM. For the same compound, the TGI [17] was 35.5 µM, the TGI [19] was 32 µM and the TGI [20] was 53.4 µM. It also gave a TGI [21] of 35.9 µM, a TGI [22] of 38.2 µM and a TGI [23] of 30.8 µM. It also gave a TGI [24] of 30.7 µM, a TGI [25] of 33.4 µM and a TGI [27] of 50.3 µM. It also gave a TGI [28] of 35.7 µM, a TGI [29] of 42.6 µM and a TGI [30] of 63.8 µM. For the same compound, the TGI [31] was 58.5 µM, the TGI [32] was 35.2 µM and the TGI [33] was 32.8 µM. The TGI [34] was 32.3 µM, the TGI [35] was 34.3 µM and the TGI [36] was 49 µM. For the same compound, the TGI [37] was 37.1 µM, the TGI [38] was 33.5 µM and the TGI [39] was 37.2 µM. The TGI [40] was 37.3 µM, the TGI [41] was 28.5 µM and the TGI [42] was 33.5 µM. For the same compound, the TGI [43] was 38.6 µM, the TGI [44] was 42.9 µM and the TGI [45] was 34.3 µM. For the same compound, the TGI [46] was 32.4 µM, the TGI [58] was over 100 µM and the TGI [47] was 52.5 µM. It also gave a TGI [48] of 33.9 µM, a TGI [49] of 28.6 µM and a TGI [50] of 47.3 µM. It also gave a TGI [51] of 23.7 µM, a TGI [52] of 35.4 µM and a TGI [54] of 33 µM.
